What is called EC50 is the concentration giving half of the maximal effect.

The text below walks through data of US10604514B2, “6-(5-membered heteroaryl)isoquinolin-3-yl carboxamides and preparation and use thereof” (Samumed, LLC, priority 2017, dated 2020).

Like-named read-outs stand apart in the source and are kept apart here.

Assay [1] relates to Wnt activity (Sp5-Luc reporter in SW480 colon carcinoma cells). In words: Wnt activity screening assay (Sp5-Luc reporter gene assay). It counts as cell-based, human. Conditions: Homo sapiens; for inhibition at 10 µM: SW480, read-out: percent inhibition at 10 μM; for EC50: Sp5-Luc reporter, SW480 cells, 36 to 48 hours. The text has this: The screening assay for Wnt activity is described as follows. Reporter cell lines can be generated by stably transducing cancer cell lines (e.g., colon cancer) or primary cells (e.g., IEC-6 intestinal cells) with a lentiviral construct that includes a Wnt-responsive promoter driving expression of the firefly luciferase gene.
SW480 colon carcinoma cells were transduced with a lentiviral vector expressing luciferase with a human Sp5 promoter consisting of a sequence of eight TCF/LEF binding sites. SW480 cells stably expressing the Sp5-Luc reporter gene and a hygromycin resistance gene were selected by treatment with 150 μg/mL of hygromycin for 7 days. These stably transduced SW480 cells were expanded in cell culture and used for all further screening activities. Each compound was dissolved in DMSO as a 10 mM stock and used to prepare compound source plates. Serial dilution (1:3, 10-point dose-response curves starting from 10 μM) and compound transfer was performed using the ECHO 550 (Labcyte, Sunnyvale, Calif.) into 384-well white solid bottom assay plates (Greiner Bio-One) with appropriate DMSO backfill for a final DMSO concentration of 0.1%. For Sp5-Luc reporter gene assays, the cells were plated at 4,000 cells/well in 384-well plates with a DMEM medium containing 1% fetal bovine serum, and 1% Penicillin-Streptomycin and incubated for 36 to 48 hours at 37° C. and 5% CO2. Following incubation, 15 μl of BriteLite Plus luminescence reagent (Perkin Elmer) was added to each well of the 384-well assay plates. The plates were placed on an orbital shaker for 2 min and then luminescence was quantified using the Envision (Perkin Elmer) plate reader. Readings were normalized to DMSO only treated cells, and normalized activities were utilized for EC50 calculations using the dose-response log (inhibitor) vs. response -variable slope (four parameters) nonlinear regression feature available in GraphPad Prism 5.0 (or Dotmatics).
Background: A reporter such as luciferase makes a cellular process visible.

The target of assay [2] is GSK3β kinase (Homo sapiens (Human), UniProt P49841). As to the kind of experiment: GSK3β kinase assay (Ser/Thr 09 peptide Z-lyte, FRET).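 Also: Coumarin/fluorescein emission ratio converted to percent phosphorylation against unphosphorylated (0%) and phosphorylated (100%) controls, 1 h compound incubation at room temperature, 11-point threefold dilutions from 10 µM, run in duplicate.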 The format is biochemical. Conditions: method text calls the value IC50.
Chain of GSK3β kinase (P49841 whole entry): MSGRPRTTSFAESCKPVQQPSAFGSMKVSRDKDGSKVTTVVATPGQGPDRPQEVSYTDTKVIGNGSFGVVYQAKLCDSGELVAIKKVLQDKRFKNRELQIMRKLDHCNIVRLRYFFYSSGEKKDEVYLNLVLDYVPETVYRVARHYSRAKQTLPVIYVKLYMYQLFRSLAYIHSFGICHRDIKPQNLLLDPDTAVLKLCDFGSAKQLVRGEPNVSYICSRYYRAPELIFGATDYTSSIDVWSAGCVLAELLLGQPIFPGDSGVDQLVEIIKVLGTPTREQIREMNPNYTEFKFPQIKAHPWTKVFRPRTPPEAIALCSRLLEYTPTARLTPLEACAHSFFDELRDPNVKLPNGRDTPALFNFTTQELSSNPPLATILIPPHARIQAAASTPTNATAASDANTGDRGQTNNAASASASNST
Assay [3] relates to SW480 colon carcinoma cells. As to the kind of experiment: Cell viability assay (CellTiter-Glo) in SW480 cells.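 As to all read-outs here: SW480 cells stably carrying an Sp5-luciferase TCF/LEF reporter, luminescent ATP signal as viability measure, DMSO-treated cells as control.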 The format is cell-based, human. The settings on record: Homo sapiens; for EC50: 96 h, cell viability, SW480 cells, four days, CellTiter-Glo; for inhibition at 10 µM: SW480, read-out: percent inhibition at 10 μM. Background: Cellular ATP, detected with luciferase, serves as a proxy for viable cell number.

In assay [4] the test system is LL29 cells (primary human fibroblasts derived from IPF patients), α-smooth muscle actin. As to the kind of experiment: Inhibition of fibrotic process: αSMA in TGF-β1-treated primary human fibroblasts from IPF patients (LL29 cells). The format is cell-based. The settings on record: Homo sapiens, Fibroblast; for EC50: 96 h, % αSMA-positive LL29 cells, TGF-β1 20 ng/mL, 4 days; for inhibition at 10 µM: read-out: percent inhibition at 10 μM. The text has this: Representative compounds were screened using primary human fibroblasts (derived from IPF patients) treated with TGF-β1 to determine their ability to inhibit the fibrotic process.
Primary human fibroblasts derived from IPF patients (LL29 cells) [^1Xiaoqiu Liu, et. al., “Fibrotic Lung Fibroblasts Show Blunted Inhibition by cAMP Due to Deficient cAMP Response Element-Binding Protein Phosphorylation”, Journal of Pharmacology and Experimental Therapeutics (2005), 315(2), 678-687; ^2Watts, K. L., et. al., “RhoA signaling modulates cyclin D1 expression in human lung fibroblasts; implications for idiopathic pulmonary fibrosis”, Respiratory Research (2006), 7(1), 88] were obtained from American Type Culture Collection (ATCC) and expanded in F12 medium supplemented with 15% Fetal Bovine Serum and 1% Penicillin/Streptomycin.
Each compound was dissolved in DMSO as a 10 mM stock and used to prepare compound source plates. Serial dilution (1:2, 11-point dose-response curves from […] to 0.94 nM) and compound transfer was performed using the ECHO 550 (Labcyte, Sunnyvale, Calif.) into 384-well clear bottom assay plates (Greiner Bio-One) with appropriate DMSO backfill for a final DMSO concentration of 0.1%. LL29 cells were plated at 1,500 cells/well in 70 μL/well F12 medium supplemented with 1% Fetal Bovine Serum. TGF-β1 (Peprotech; 20 ng/mL) was added to the plates to induce fibrosis (ref. 1 and 2 above). Wells treated with TGF-31 and containing DMSO were used as positive control, and cells with only DMSO were negative control. Cells were incubated at 37° C. and 5% CO2 for 4 days. Following incubation for 4 days, SYTOX green nucleic acid stain (Life Technologies [Thermo Fisher Scientific]) was added to the wells at a final concentration of 1 μM and incubated at room temperature for 30 min. Cells were then fixed using 4% formaldehyde (Electron Microscopy Sciences), washed 3 times with PBS followed by blocking and permeabilization using 3% Bovine Serum Albumin (BSA; Sigma) and 0.3% Triton X-100 (Sigma) in PBS. Cells were then stained with antibody specific to α-smooth muscle actin (αSMA; Abcam) (ref. 1 and 2 above) in 3% Bovine Serum Albumin (BSA; Sigma) and 0.3% Triton X-100 (Sigma) in PBS, and incubated overnight at 4° C. Cells were then washed 3 times with PBS, followed by incubation with Alexa Flor-647 conjugated secondary antibody (Life Technologies [Thermo Fisher Scientific]) and DAPI in 3% Bovine Serum Albumin (BSA; Sigma) and 0.3% Triton X-100 (Sigma) in PBS at room temperature for 1 hour. Cells were then washed 3 times with PBS and plates were sealed for imaging. αSMA staining was imaged by excitation at 630 nm and emission at 665 nm and quantified using the Compartmental Analysis program on the CellInsight CX5 (Thermo Scientific). Dead or apoptotic cells were excluded from analysis based on positive SYTOX green staining. % of total cells positive for αSMA were counted in each well and normalized to the average of 11 wells treated with TGF-β1 on the same plate using Dotmatics' Studies Software.

Assay [5] deals with IL-6. As to the kind of experiment: IL-6 inhibition in LPS-stimulated human peripheral blood mononuclear cells (HTRF). It counts as cell-based. Conditions: Homo sapiens, PBMC; for EC50: IL-6, LPS-stimulated huPBMCs, HTRF. The method, then:
Fresh Normal PB MNC (Catalog # PB001, AllCells, Alameda, Calif.) were shipped overnight at 4° C. and resuspended in Roswell Park Memorial Institute (RPMI) 1640 Medium, with GlutaMAX Supplement (Catalog #61870127, ThermoFisher Scientific, Waltham, Mass.) supplemented with 1% Penicillin-Streptomycin (Catalog #151401633 ThermoFisher Scientific, Waltham, Mass.) and 1% fetal bovine serum (FBS) (Catalog #16140089, ThermoFisher Scientific, Waltham, Mass.) assay media.
Fresh normal human peripheral blood mononuclear cells (huPBMCs) were resuspended in 1% FBS-RPMI assay media with 1% Penicillin-Streptomycin 1% to a cell concentration of 1×10e6 cells/mL. Each compound was dissolved in DMSO (Catalog # D8418-100 ml, Sigma-Aldrich, St. Louis, Mo.) as a 10 mM stock and used to prepare compound source plates. Serial dilution (1:3, 10-point dose-response curves starting from 10 μM) and compound transfer was performed using the ECHO 550 (Labcyte, Sunnyvale, Calif.) into 384-well white Proxiplate-Plus assay plates (Catalog #6008289, PerkinElmer, Shelton, Conn.) with appropriate DMSO backfill for a final DMSO concentration of 0.25%. huPBMCs were plated at 5000 cells/well in the 384-well Proxiplate-Plus assay plates and incubated at 37° C.-5% CO2 for 2 hours. 50 ng/mL of Lipopolysaccharides from Escherichia coli 0111:B4 (Catalog # L5293-2 ML, Sigma-Aldrich, St. Louis, Mo.) was added after 2 hours and cells were incubated for another 22 hours at 37° C.-5% CO2. After 22 hour incubation, a mixture of anti-IL6 XL665 and anti-IL-6 Cryptate diluted in reconstitution buffer (Catalog #62IL6PEC, Cisbio Inc., Bedford, Mass.) was added to each well. Following incubation for 3 hours at room temperature, Homogeneous Time-Resolved Fluorescence (HTRF) was measured using the Envision (Perkin Elmer, Shelton, Conn.) at 665 nm and […]. The ratio of fluorescence at 665 nm to 620 nm was used as a readout for IL-6 quantification. All samples were processed in duplicate. Readings were normalized to DMSO treated cells and normalized activities were utilized for EC50 calculations. EC50 was determined using software generated by Dotmatics Limited (Windhill Bishops Stortford Herts, UK) using the Levenberg-Marquardt 4 parameter fitting procedure with finite different gradients.

Assay [6] deals with DYRK1A kinase (Homo sapiens (Human), UniProt Q13627). As to the kind of experiment: DYRK1A kinase assay (Ser/Thr 18 peptide Z-lyte, FRET).
The subject of assay [7] is Tau phosphorylation at Ser396 (pSer396), SH-SY5Y cells. As to the kind of experiment: Tau phosphorylation at Ser396 (pSer396) in SH-SY5Y cells, ELISA/western blot.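 Also: cell lysates probed for reduced Tau pSer396 via ELISA (colorimetric) or western blot (chemiluminescence), both with one shared pSer396 antibody, EC50 for lowering phosphorylation.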 The format is cell-based, human. Conditions: Homo sapiens; SH-SY5Y cells, overnight (16-18 h); read-out: pSer396 Tau EC50.
Experimental: Two days before treatment, cells were seeded onto 96 well plates at 5×10^4 cells/well.
Wells were visually checked for cell death or change in morphology and supernatants were tested for cytotoxicity by measurement of lactate dehydrogenase release (LDH, CytoToxOne kit, Promega) if necessary.
Cells were lysed with RIPA buffer complemented with phosphatase and protease inhibitors then lysates were spun down at 12,000 g for 10 min to remove any cellular debris. Lysates are then either directly tested for pSer396 by ELISA (Life Technology, Kit KHB7031) or loaded on NuPage Bis-Tris gels for western blot analysis. Colorimetric detection of ELISA signal is performed by Cytation3 plate reader (Biotek) and the chemiluminescence signal for HRP-linked antibodies used in western blotting is detected using a Carestream Image Station. The same pSer396 antibody is used for detection of pTau in both assays.
Where [8] appears, read: DYRK1A kinase, method text calls the value IC50.

For `Cc1ncc(-c2cc(F)c3cnc(NC(=O)[C@H]4CC[C@H](N5CCOCC5)CC4)cc3c2)o1` [Compound 19, trans-N-(8-Fluoro-6-(2-methyloxazol-5-yl)isoquinolin-3-yl)-4-morpholinocyclohexane-1-carboxamide], the inhibition at 10 µM in assay [1] was 22.4%; in assay [3], 44.8%; in assay [4], 20.6%. Further, the concentration giving a half-maximal response (EC50) is above 10000 nM in assay [1]; 1160 nM in assay [2]; above 10000 nM in assay [3]; above 10000 nM in assay [4]; 3220 nM in assay [5]; 110 nM in assay [6] (setting [8]).
On to `Cc1ncc(-c2cc(F)c3cnc(NC(=O)N(C)C4CCN(C)CC4)cc3c2)o1` [Compound 229, 3-(8-Fluoro-6-(2-methyloxazol-5-yl)isoquinolin-3-yl)-1-methyl-1-(1-methylpiperidin-4-yl)urea], for which the figures for the inhibition at 10 µM in assay [1] and in assay [3] were 0% and 49.5%, respectively. In addition, the 50% effective concentration (EC50) in assay [1] is above 10000 nM; in assay [2] it was 6710 nM; in assay [3], above 10000 nM; in assay [4] it was 9980 nM; in assay [5] it was 8960 nM; in assay [6] (setting [8]), 1000 nM.
In the case of `Cn1cc(-c2ccc3cnc(NC(=O)c4ccnc(N5CC[N+](C)([O-])CC5)c4)cc3c2)nn1` [Compound 224, 1-methyl-4-(4-((6-(1-methyl-1H-1,2,3-triazol-4-yl)isoquinolin-3-yl)carbamoyl)pyridin-2-yl)piperazine 1-oxide], the inhibition at 10 µM came to 43.8% in assay [1], 24.6% in assay [3], 13.1% in assay [4] and 13.7% in assay [5] (read-out: percent value in parentheses below EC50 >10). The EC50 in assay [1] is above 10000 nM; in assay [2], 703 nM; in assay [3], above 10000 nM; in assay [4], above 10000 nM; in assay [5], above 10000 nM; in assay [6], 1 nM.
Consider `CC(C)CN1CCC(C(=O)Nc2cc3cc(-c4ccn(C)n4)ccc3cn2)CC1` [Compound 7, 1-Isobutyl-N-(6-(1-methyl-1H-pyrazol-3-yl)isoquinolin-3-yl)piperidine-4-carboxamide], for which the inhibition at 10 µM in assay [1] came to 32.9%; in assay [3] it was 42.5%. Besides, the concentration for a half-maximal effect (EC50) is above 10000 nM in assay [1]; 1900 nM in assay [2]; above 10000 nM in assay [3]; 2660 nM in assay [4]; 9420 nM in assay [5]; 376 nM in assay [6] (setting [8]).
`[2H]C1([2H])CCC([2H])([2H])N1c1cc(C(=O)Nc2cc3cc(-c4cncn4C)ccc3cn2)ccn1` [Compound 79, N-(6-(1-methyl-1H-imidazol-5-yl)isoquinolin-3-yl)-2-(pyrrolidin-1-yl-2,2,5,5-d4)isonicotinamide]: the EC50 is 4040 nM in assay [1]; above 10000 nM in assay [7]; 464 nM in assay [3]; 572 nM in assay [4]; 1340 nM in assay [5].
Take `[2H]c1c(NC(=O)C2CCN(CC(C)C)CC2)ncc2ccc(-c3cnn(C)c3)cc12` [Compound 6, 1-Isobutyl-N-(6-(1-methyl-1H-pyrazol-4-yl)isoquinolin-3-yl-4-d)piperidine-4-carboxamide]: the EC50 in assay [1] came out at 820 nM; in assay [7] it was 103 nM; in assay [3], 1240 nM; in assay [4], 132 nM; in assay [5] it was 967 nM.
For `[2H]c1nc(NC(=O)c2ccnc(N3CCN(CC)CC3)c2)cc2cc(-c3cnn(C)c3)ccc12` [Compound 8, 2-(4-Ethylpiperazin-1-yl)-N-(6-(1-methyl-1H-pyrazol-4-yl)isoquinolin-3-yl-1-d)isonicotinamide], in that order: 28 nM, above 10000 nM, 99 nM, 95 nM and 932 nM.
Regarding `Cc1ncc(-c2ccc3cnc(NC(=O)[C@H]4CC[C@H](N(C)C)CC4)cc3c2)o1` [Compound 45, trans-4-(Dimethylamino)-N-(6-(2-methyloxazol-5-yl)isoquinolin-3-yl) cyclohexane-1-carboxamide], the concentration giving a half-maximal response (EC50) came out at 1860 nM in assay [1], 320 nM in assay [7], 95 nM in assay [4] and 3 nM in assay [6] (setting [8]).
